Entries after “also recorded” stand apart in the source; their conditions may differ. Like-named read-outs stand apart in the source and are kept apart here.
How the values were obtained:
ZACN [1] = target: T1, ZACN (Homo sapiens, UniProt Q401N2); test: Two-electrode voltage-clamp, ZACN expressed in Xenopus laevis oocytes: inhibition or modulation of spontaneous, zinc-activated and suramin-activated current; type: cell-based; parameters: host or cells: Xenopus laevis oocytes injected with cRNA (pGEMHE vector, T7 transcript); conditions: for mode of antagonism: IC50 at 500 μM vs 2 mM Zn2+
T1 sequence (Q401N2 26-412): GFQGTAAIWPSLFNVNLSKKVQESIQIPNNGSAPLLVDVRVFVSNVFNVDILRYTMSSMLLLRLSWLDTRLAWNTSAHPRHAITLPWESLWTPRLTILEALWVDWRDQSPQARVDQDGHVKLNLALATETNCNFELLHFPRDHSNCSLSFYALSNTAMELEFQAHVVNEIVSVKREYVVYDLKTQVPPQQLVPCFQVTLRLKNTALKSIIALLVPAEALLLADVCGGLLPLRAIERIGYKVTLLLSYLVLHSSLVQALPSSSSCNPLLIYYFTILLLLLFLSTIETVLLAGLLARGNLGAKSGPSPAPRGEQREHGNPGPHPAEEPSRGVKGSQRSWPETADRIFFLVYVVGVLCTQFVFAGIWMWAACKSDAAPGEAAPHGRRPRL
Experimental: Stage IV oocytes from Xenopus laevis were injected with Ing of ZACN human mRNA. Prior to recording, oocytes were incubated in the oocyte Ringer's Solution (OR2) with 10 μM D-tubocurarine to inhibit spontaneous channel opening. The oocytes were incubated at 14° C. for three to five days following mRNA injection before recording with two-electrode voltage-clamp. […] Current levels in response to drug applications were normalized to the response to the same concentration of zinc in the absence of the drug. Peak current inhibitions were fitted to the Hill equation to derive IC50 values.
(§1) The cDNA encoding wild type, human ZACN was purchased from OpenBiosystems, and cloned into the pGEMHE vector in the T7 orientation. For cRNA synthesis, cDNA templates were PCR amplified using primers that cover the M13 forward and reverse regions and high fidelity Phusion DNA polymerase (New England Biolab, Ipswich, Mass., USA). PCR products were then purified and served as templates for cRNA synthesis. cRNAs were transcribed by T7 RNA polymerase (Promega, Madison, Wis., USA) using standard in vitro transcription protocols. After digestion of the DNA template by RNase-free DNase I, cRNAs were purified and resuspended in diethyl pyrocarbonate (DEPC)-treated water. cRNA integrity was examined on a 1% agarose gel, and cRNA concentration was determined by optical density measurements at 260 nm using an Eppendorf Biophotometer.
(§2) Oocytes were harvested from female Xenopus laevis (Xenopus I, Ann Arbor, Mich., USA), using the protocol “Xenopus Care and Use” approved by the Institutional Animal Care and Use Committee of the St. Joseph's Hospital and Medical Center. Stage VI oocytes were selected and incubated at 16° C. before injection. Micropipettes for injection were pulled from borosilicate glass (Drummond Scientific, Broomall, Pa., USA) on a Sutter P87 horizontal puller, and the tips were cut with forceps to ≈40 μm in diameter. cRNAs encoding ZACN was drawn up into the micropipette and injected into oocytes with a Nanoject micro-injection system (Drummond Scientific) in a total volume of ˜60 nl and total cRNA of ˜20 ng for each oocyte.
(§3) ValveLink 16 computer-controlled perfusion system was used to switch solutions between the OR2 and a test solution. The perfusion chamber was grounded through an agar salt bridge to avoid alterations in junction potential between the Ag/AgCl grounding electrode and solution when solution/drug changes occurred. Oocytes were voltage-clamped at −70 mV to measure agonist-induced currents using an AxoClamp 900A amplifier (Axon Instruments, Foster City, Calif., USA). The current signal was low-pass filtered at 20 Hz with the built-in 4-pole low-pass Bessel filter and digitized at 100 Hz with a Digidata1440a and pClamp 10 software (Molecular Devices).
(§4) For each oocyte, concentration-inhibition curves for drug-induced inhibition of zinc-activated current responses or concentration response curves for agonist-induced current of the ZACN were fit to the Hill equation using least squares methods (Prism 6.0, GraphPad Software, Inc., San Diego, Calif., USA) to derive IC50 or EC50 values (the concentration required for inducing a half maximal current), Hill coefficients (the slope factor), and maximum current levels in absolute terms. Current levels in each oocyte were normalized to the maximum current in the absence of the inhibitor, allowing normalized data to be averaged across multiple oocytes and to be fit again to the Hill equation. All data are presented as mean±SEM (standard error).

ZACN [2] = target: T1, ZACN; test: Two-electrode voltage-clamp, ZACN expressed in Xenopus laevis oocytes: agonist-induced current; type: cell-based; parameters: host or cells: Xenopus laevis oocytes injected with cRNA (pGEMHE vector, T7 transcript)
From the text: as §1, §2
as §3, with “Two to 5 days after injection, oocytes expressing ZACN were placed in a home-made, small volume chamber and a 16-channel manifold, continuously perfused with oocyte Ringer's solution (OR2), which consisted of (in mM) 92.5 NaCl, 2.5 KCl, 1 CaCl2, 1 MgCl2 and 5 HEPES, pH 7.5. ValveLink” for “ValveLink”
as §4

Compound: CCOc1ccccc1OC(c1ccccc1)C1CNCCO1 (centres unmarked) [reboxetine]
- antagonist activity on human ZACN (ZACN [1]): acted as antagonists
- mode of antagonism (ZACN [1]): non-competitive

Compound: CNCCC(Oc1ccc(C(F)(F)F)cc1)c1ccccc1 (centres unmarked) [fluoxetine]
- antagonist activity on human ZACN (ZACN [1]): acted as antagonists
- mode of antagonism (ZACN [1]): non-competitive

Compound: COc1cc(-c2ccc(/N=N/c3ccc4c(S(=O)(=O)O)cc(S(=O)(=O)O)c(N)c4c3O)c(OC)c2)ccc1/N=N/c1ccc2c(S(=O)(=O)O)cc(S(=O)(=O)O)c(N)c2c1O [Chicago sky blue]
- agonist activity on human ZACN (words) (ZACN [2]): activate the human ZACN

Compound: O=C(Nc1cc(C(=O)Nc2ccc(S(=O)(=O)O)cc2)cc(C(=O)Nc2ccc(S(=O)(=O)O)cc2)c1)Nc1cc(C(=O)Nc2ccc(S(=O)(=O)O)cc2)cc(C(=O)Nc2ccc(S(=O)(=O)O)cc2)c1 [NF-110]
- agonist activity on human ZACN (words) (ZACN [2]): agonist

Compound: Cc1ccc(C(=O)Nc2ccc(S(=O)(=O)O)c3cc(S(=O)(=O)O)cc(S(=O)(=O)O)c23)cc1NC(=O)c1cccc(NC(=O)Nc2cccc(C(=O)Nc3cc(C(=O)Nc4ccc(S(=O)(=O)O)c5cc(S(=O)(=O)O)cc(S(=O)(=O)O)c45)ccc3C)c2)c1 [suramin]
- agonist activity on human ZACN (words) (ZACN [2]): agonists; also recorded: efficacious agonist

Compound: Nc1ncnc2c1ncn2[C@@H]1O[C@H](COP(=O)(O)OP(=O)(O)OP(=O)(O)O)[C@@H](O)[C@H]1O [ATP]
- antagonist activity on human ZACN (ZACN [1]): inhibitor
- effect on spontaneous current / spontaneous opening (ZACN [1]): inhibits
- effect on suramin-activated current (ZACN [1]): positive allosteric modulator; also recorded: potentiates
- effect on zinc-activated current (ZACN [1]): antagonist; also recorded: inhibits

Compound: O=C(Nc1cc(C(=O)Nc2ccc(S(=O)(=O)O)cc2S(=O)(=O)O)cc(C(=O)Nc2ccc(S(=O)(=O)O)cc2S(=O)(=O)O)c1)Nc1cc(C(=O)Nc2ccc(S(=O)(=O)O)cc2S(=O)(=O)O)cc(C(=O)Nc2ccc(S(=O)(=O)O)cc2S(=O)(=O)O)c1 [NF-449]
- agonist activity on human ZACN (words) (ZACN [2]): agonist
- concentration at which the small high sensitivity component is saturated (ZACN [2]): 1 µM

Compound: Cc1cc2nc3ccc(N(C)C)cc3nc2cc1N.Cl [neutral red]
- antagonist activity on human ZACN (ZACN [1]): antagonists
- high sensitivity component of antagonism, concentration range (ZACN [1]): nano-molar range
- low sensitivity form of antagonism, concentration range (ZACN [1]): micromolar range

Compound: Cc1c(C2(c3cc(C(C)C)c(O)c(Br)c3C)OS(=O)(=O)c3ccccc32)cc(C(C)C)c(O)c1Br [bromothymol blue]
- agonist activity on human ZACN (words) (ZACN [2]): activate the human ZACN

Compound: O=C(Nc1cccc(C(=O)Nc2ccc(S(=O)(=O)O)c3cc(S(=O)(=O)O)cc(S(=O)(=O)O)c23)c1)Nc1cccc(C(=O)Nc2ccc(S(=O)(=O)O)c3cc(S(=O)(=O)O)cc(S(=O)(=O)O)c23)c1 [NF-023]
- agonist activity on human ZACN (words) (ZACN [2]): agonist

Compound: CN(C)c1ccc2nc3ccc(=[N+](C)C)cc-3sc2c1 [methylene blue]
- antagonist activity on human ZACN (ZACN [1]): antagonists
- high sensitivity component of antagonism, concentration range (ZACN [1]): nano-molar range
- low sensitivity form of antagonism, concentration range (ZACN [1]): micromolar range

Compound: CN(C)CCC=C1c2ccccc2COc2ccccc21 [doxepin]
- antagonist activity on human ZACN (ZACN [1]): acted as antagonists
- mode of antagonism (ZACN [1]): non-competitive

Compound: O=S1(=O)OC(c2cc(Br)c(O)c(Br)c2)(c2cc(Br)c(O)c(Br)c2)c2ccccc21 [bromophenol blue]
- agonist activity on human ZACN (words) (ZACN [2]): activate the human ZACN

Compound: O=C(Nc1cccc(C(=O)Nc2cc(C(=O)Nc3ccc(S(=O)(=O)O)c4cc(S(=O)(=O)O)cc(S(=O)(=O)O)c34)ccc2F)c1)Nc1cccc(C(=O)Nc2cc(C(=O)Nc3ccc(S(=O)(=O)O)c4cc(S(=O)(=O)O)cc(S(=O)(=O)O)c34)ccc2F)c1 [NF-157]
- agonist activity on human ZACN (words) (ZACN [2]): efficacious agonist
- agonist activity on human ZACN (words) (ZACN [2]; listed as NF157): agonists

Compound: COc1ccc(C(CN(C)C)C2(O)CCCCC2)cc1 (centres unmarked) [venlafaxine]
- antagonist activity on human ZACN (ZACN [1]): acted as antagonists
- mode of antagonism (ZACN [1]): non-competitive

Compound: CN1CCN2c3ccccc3Cc3ccccc3C2C1 (centres unmarked) [mianserin]
- antagonist activity on human ZACN (ZACN [1]): acted as antagonists
- mode of antagonism (ZACN [1]): non-competitive

Compound: Cc1cc(-c2ccc(/N=N/c3c(S(=O)(=O)O)cc4cc(S(=O)(=O)O)cc(N)c4c3O)c(C)c2)ccc1/N=N/c1c(S(=O)(=O)O)cc2cc(S(=O)(=O)O)cc(N)c2c1O [Trypan blue]
- agonist activity on human ZACN (words) (ZACN [2]): agonists; also recorded: efficacious agonist

Compound: CNCCCN1c2ccccc2CCc2ccccc21 [desipramine]
- IC50s relative to clinical concentrations (ZACN [1]): clinically relevant concentrations
- antagonist activity on human ZACN (ZACN [1]): acted as antagonists
- relative potency / IC50 for the Zn2+-induced current among seven tested antidepressants (ZACN [1]): lower IC50 values
- mode of antagonism (ZACN [1]): non-competitive
- relative potency / IC50 for the Zn2+-induced current among seven tested antidepressants (ZACN [1]; listed as desipranine): most potent antagonists

Compound: CNCC[C@@H](Oc1ccccc1C)c1ccccc1 [tomoxetine]
- IC50s relative to clinical concentrations (ZACN [1]): clinically relevant concentrations
- antagonist activity on human ZACN (ZACN [1]): acted as antagonists
- relative potency / IC50 for the Zn2+-induced current among seven tested antidepressants (ZACN [1]): lower IC50 values
- mode of antagonism (ZACN [1]): non-competitive
- relative potency / IC50 for the Zn2+-induced current among seven tested antidepressants (ZACN [1]; listed as tomoxentine): most potent antagonists

Compound: Cc1cc2nc3ccc(N(C)C)cc3[s+]c2cc1N.[Cl-] [toluidine blue]
- antagonist activity on human ZACN (ZACN [1]): antagonists
- high sensitivity component of antagonism, concentration range (ZACN [1]): nano-molar range
- low sensitivity form of antagonism, concentration range (ZACN [1]): micromolar range

Compound: pentosan polysulfate
- agonist activity on human ZACN (words) (ZACN [2]): agonist of the human ZACN with high efficacy
- agonist activity on human ZACN (words) (ZACN [2]; listed as pentosane polysulfate): agonist

Compound: Cc1cc(-c2ccc(/N=N/c3ccc4c(S(=O)(=O)O)cc(S(=O)(=O)O)c(N)c4c3O)c(C)c2)ccc1/N=N/c1ccc2c(S(=O)(=O)O)cc(S(=O)(=O)O)c(N)c2c1O [Evans blue]
- agonist activity on human ZACN (words) (ZACN [2]): agonists; also recorded: efficacious agonist

Compound: heparin
- agonist activity on human ZACN (words) (ZACN [2]): agonist

Compound: brilliant blue
- agonist activity on human ZACN (words) (ZACN [2]): activate the human ZACN

Compound: O=C(Nc1ccc(C(=O)Nc2ccc(C(=O)Nc3ccc(S(=O)(=O)O)c4cc(S(=O)(=O)O)cc(S(=O)(=O)O)c34)cc2)cc1)Nc1ccc(C(=O)Nc2ccc(C(=O)Nc3ccc(S(=O)(=O)O)c4cc(S(=O)(=O)O)cc(S(=O)(=O)O)c34)cc2)cc1 [NF-279]
- agonist activity on human ZACN (words) (ZACN [2]): agonists; also recorded: efficacious agonist
